The target of the assay is T1, Der pI (Dermatophagoides pteronyssinus, UniProt P08176).
T1 construct: tissue SmithKline-Beecham, U.K (crude mite extract); host or cells: crude house dust mite extract
T1 sequence (P08176 99-320): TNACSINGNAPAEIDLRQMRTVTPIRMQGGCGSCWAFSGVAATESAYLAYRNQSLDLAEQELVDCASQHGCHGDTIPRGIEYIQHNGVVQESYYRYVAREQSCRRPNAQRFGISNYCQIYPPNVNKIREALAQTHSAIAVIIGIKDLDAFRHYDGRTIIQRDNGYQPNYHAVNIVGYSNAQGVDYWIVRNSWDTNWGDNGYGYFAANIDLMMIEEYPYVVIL
In words: Der pI substrate assay with FRET peptides (fluorescence, Km, kcat/Km). The class given is biochemical, house dust mite. The following applies: purified Der pI; peptides SEQ ID Nos. 1-76; read-out: Measured Km. The procedure:
Using the general techniques described above, the following compounds were prepared and assayed as potential substrates against Der pI purified as described above.
Each mixture of 20 compounds in the libraries of the apparatus described herein was screened at a concentration of 1.0 μM per compound in an assay against the cysteinyl protease Der pI.
Plate assays were carried out in 96 well plate format, using 0.1 ug of Der pI per 100 μL assay volume in each well and using 20 μM of the substrate. All assays were performed in Assay Buffer (AB; 50 mM potassium phosphate, pH 8.25 containing 1 mM ethylenediaminetetraacetic acid (EDTA) and 1 mM dithiothreitol (DTT). The Der pI enzyme is pre-activated by addition of DTT and this in incubated at room temperature for 5 min. prior to initiation of the assay. As an example for the screening methodology, each well contains a 5 μL of a 20 μM solution of the test compound in DMSO, 10 μL of a 200 μM aqueous solution of the substrate, 2, and 85 μL of Der pI in AB is added to initiate the reaction. Enzyme activity is monitored by fluorescence using 320 nm for excitation and 420 nm for the emission wavelengths using a Labsystems Fluroskan Ascent machine. Kinetic measurements were carried out using a Hitachi F-4500 Fluorescence Spectrophotometer.

Broadly, the Km is the substrate concentration at which the rate is half of its maximum. On to Abz-Bip-Ala-hLeu-Abu-Tyr(NO2)-Asp-NH2, for which the Km came to 1.7 µM.

Values taken from US6528275B1, “Substrates and inhibitors of proteolytic enzymes” (Peptide Therapeutics Limited, priority 1996, dated 2003).
